{"source": "paper PMC3579193", "about": "“Elucidation of relaxin-3 binding interactions in the extracellular loops of RXFP3” (Frontiers in Endocrinology, 2013)", "key": {"rats": {"system": "rats", "details": "central administration, ref McGowan et al., 2005, 2006, Ganella et al., 2012b; cited from earlier work", "from_the_text": "Relaxin-3 is involved in a wide range of behaviors, including feeding, stress responses, arousal, and cognitive processes ([Smith et al., 2011]). […] Relaxin-3 neuronal activity and production of relaxi ..."}, "RXFP4": {"system": "RXFP4", "details": "ref Liu et al., 2003a; cited from earlier work", "from_the_text": "Relaxin-3 is a member of the relaxin peptide family. Peptides from this family activate relaxin family peptide (RXFP) receptors, which are Type I or Class A G protein-coupled receptors (GPCRs). […] The rela ... || Based on the hypothesis that coevolution of relaxin-3 and RXFP3 occurred in vertebrates and that residues important for relaxin-3 binding and activation should therefore be conserved we performed multiple sequence alignments of all vertebrate RXFP3 sequences. […] Figure 1A highlights sequence alignments of representative mammalian species (human, chimpanzee, rat, mouse, platypus) and representative lower vertebrate species (Frog and Zebrafish) from this analysis compa ... || Based on the hypothesis that coevolution of relaxin-3 and RXFP3 occurred in vertebrates, and in the knowledge that the key relaxin-3 B-chain residues are conserved across all vertebrate species ([Wilkinson et al., 2005b]), we performed multiple sequence alignments of all vertebrate RXFP3 sequences to identify highly conserved residues in the ELs and NT domain that may be involved in relaxin-3 binding. […] We have focused on glutamic (E) and aspartic acid (D) residues ..."}, "RXFP1": {"system": "RXFP1", "details": "ref Sudo et al., 2003; cited from earlier work", "from_the_text": "Relaxin-3 is a member of the relaxin peptide family. Peptides from this family activate relaxin family peptide (RXFP) receptors, which are Type I or Class A G protein-coupled receptors (GPCRs). […] The rela ..."}, "[1]": {"system": "chimeric RXFP3/4 receptors", "details": "ref Zhu et al., 2008; cited from earlier work", "from_the_text": "(§1) Although residues in the peptides have been identified as critical for activity, the specific residues in the receptors that are interacting with these are unknown. […] In addition they determined that sites in transmembrane (TM) 2, 3, and 5 are involved in receptor activation by INSL5 ([Zhu et al., 2008]). None of the receptor chimeras resulted ..."}, "RXFP4 over RXFP3": {"system": "RXFP4 over RXFP3", "details": "ref Zhu et al., 2008; cited from earlier work", "from_the_text": "as §1"}, "HA-RXFP3 E245A (human)": {"target": "HA-RXFP3 E245A (human) (UniProt Q9NSD7)", "test": "europium-labelled ligand binding on cells; specific binding of 5 nM Eu-H3/I5 to transfected HEK-293T cells in 96 well optiplates; non-specific binding with 1 uM unlabeled H3 relaxin; expressed as ratio of specific binding to cell surface expression, normalized to HA-RXFP3"}, "HA-RXFP3 E77A (human)": {"target": "HA-RXFP3 E77A (human) (UniProt Q9NSD7)", "test": "europium-labelled ligand binding on cells; specific binding of 5 nM Eu-H3/I5 to transfected HEK-293T cells in 96 well optiplates; non-specific binding with 1 uM unlabeled H3 relaxin; expressed as ratio of specific binding to cell surface expression, normalized to HA-RXFP3"}}, "note": "Ends that are not written are not given here.", "data": [{"substance": "relaxin-3: highly conserved neuropeptide, member of the relaxin peptide family; endogenous ligand of RXFP3", "values": [{"measurement": "effect on feeding", "setting": "rats", "value": "increase feeding in rats"}, {"measurement": "binding to and activation of RXFP4", "setting": "RXFP4", "value": "able to bind to and activate both RXFP4"}, {"measurement": "binding to and activation of RXFP1", "setting": "RXFP1", "value": "able to bind to and activate both RXFP4 ([Liu et al., 2003a]) and RXFP1"}, {"measurement": "effect of receptor chimeras on binding or activity", "setting": "[1]", "value": "None of the receptor chimeras resulted in appreciable changes in relaxin-3 binding or activity"}]}, {"substance": "INSL5: related insulin-like peptide-5, ligand of RXFP4 (Insulin-like peptide INSL5 B … KESVRLCGLEYIRTVIYICASSRW; Insulin-like peptide INSL5 A … QDLQTLCCTDGCSMTDLSALC; ends and bridges not checked; cysteine pairing not given here; UniProt Q9Y5Q6 23-46; Q9Y5Q6 115-135, looked up)", "values": [{"measurement": "selectivity", "setting": "RXFP4 over RXFP3", "value": "selectivity of INSL5 for RXFP4 over RXFP3"}]}, {"substance": "mono-Eu-labeled relaxin-3 agonist H3 relaxin B-chain, INSL5 A chain (H3/I5) (ligand)", "values": [{"measurement": "decrease in specific binding against HA-RXFP3", "setting": "HA-RXFP3 E245A (human)", "value": 50, "unit": "%"}, {"measurement": "loss of specific binding against HA-RXFP3", "setting": "HA-RXFP3 E77A (human)", "value": 50, "unit": "%"}]}]}
